In paper PMC3590450, “Analysis of substrate specificity and cyclin Y binding of PCTAIRE-1 kinase” (Cellular Signalling, 2012):
Where “and” joins values, the source holds several entries; their conditions need not be identical. Equal values may be shown once.

Columns and labels:
GST–PCTAIRE-1 [1] = molecular target: T1, GST–PCTAIRE-1 (Homo sapiens, UniProt Q00536); experiment: In vitro phosphotransferase (kinase) assay of purified GST–PCTAIRE-1 on peptide substrates; type: biochemical; conditions: 1 μg GST–PCTAIRE-1, peptide 0-100 μM, mean ± SEM
T1 construct: made in house; host or cells: HEK293 cells, transient transfection with pEBG6P
Method: (§1) HEK293 cells were transfected with pEBG6P encoding GST-tagged human PCTAIRE-1 and harvested 36 h later as described above. GST–PCTAIRE-1 was isolated by batch-wise purification using Glutathione-Sepharose 4B. Briefly, lysates were incubated with equilibrated resin for 1 h at 4 °C, washed extensively with lysis buffer and eluted with 20 mM reduced glutathione in 50 mM Tris–HCl pH 8, 0.27 M sucrose, 0.1 mM EGTA and 1 mM DTT. Protein concentration was estimated by densitometry of Coomassie-stained gels using BSA standards. PCTAIRE-1 preparations were snap-frozen in N2(l) and stored at − 80 °C.
(§2) Fig. 1 Determination of PCTAIRE-1 optimal substrate motif. […] (B) GST–PCTAIRE-1 WT/KD was prepared as described in (A) and the optimal substrate motif determined by positional scanning peptide library screening (PSPL) as described in Materials and methods. (C) The activity of GST–PCTAIRE-1 (1 μg) and CDK2–cyclin A2 (10 ng) was assayed against a panel of CDK-tide derivatives (concentration fixed at 250 μM) based on the results of the degenerate library screen (modifications are underlined). Results are expressed as mean ± SEM and are representative of 3 independent experiments.
(§3) Purified rPCTAIRE-1, rCDK2–cyclin A2 or immune complexes isolated from cell/tissue lysates were assayed for phosphotransferase activity in a final assay volume of 50 μl containing 50 mM HEPES pH 7.5, 0.1 mM EGTA, 10 mM Mg(OAc)2, 0.1 mM [γ-^32P] ATP (300 CPM pmol^− 1), 1 mM DTT and the indicated concentrations of peptide substrate. Reactions were incubated at 30 °C and terminated by spotting onto P81 paper and immersion in 75 mM H3PO4. P81 filters were washed 3 × 10 min with H3PO4, rinsed with acetone, air-dried and incorporation of [γ-^32P] determined by Cherenkov counting. Results are expressed in U mg^− 1, where 1 U is defined as the incorporation of 1 nmol phosphate.min^− 1.
(§4) Fig. 2 Optimisation of PCTAIRE-1 substrate peptide. The in vitro phosphotransferase activity of 1 μg GST–PCTAIRE-1 (A) and 10 ng CDK2–cyclin A2 (B) was determined using a panel of CDK-tide derivatives (modifications from the parental peptide are underlined). Peptide conc. was varied over the range 0 > 100 μM and substrate saturation curves were fitted by non-linear regression to the Michaelis–Menten model. Fitted parameters [Km (μM) and Vmax (mU mg^− 1)] are listed in the adjoining table. (C) Based on the CDK-tide optimisation, derivatives of NSF-tide were synthesised (modifications underlined) and assayed for PCTAIRE-1 activity as described in (A + B). 100% GST–PCTAIRE-1 = 164 mU mg^− 1 and 100% CDK2–[…] = 940 U mg^− 1. (D) PCTAIRE-1 was immunoprecipitated from 2 mg of HEK293 lysate and kinase activity determined using 250 μM CDK-tide or the optimised substrate, PKS*PKARKKL (PCTAIRE-tide) as described in Materials and methods. Results are expressed as mean ± SEM and are representative of 3 independent experiments. […]

CDK2–cyclin A2 = molecular target: T2, CDK2–cyclin A2 (Homo sapiens, UniProt P20248+P24941); experiment: In vitro phosphotransferase (kinase) assay of rCDK2–cyclin A2 on peptide substrates; type: biochemical; conditions: for CDK2-cyclin A2 Vmax: Fig. 2B table
T2 construct: made in house; host or cells: Escherichia coli
Method: PCTAIRE-1C-16 (sc-174) and PCTAIRE-1G6.1 (sc-53410) antibodies were from Santa Cruz Biotechnology. Cyclin Y antibody was from Proteintech. HA.11 (16B2) antibody was from Covance Research Products. The following antibodies were raised in sheep by the Division of Signal Transduction Therapy (DSTT, University of Dundee) against the indicated immunogens: PCTAIRE-1 (S552C, full length human 6×his-PCTAIRE-1), cyclin Y (S206D, full length human GST-cyclin Y). rCDK2–cyclin A2 was prepared by overexpression in Escherichia coli as previously described. Peptide substrates for kinase assays were synthesised by GL Biochem, and the peptide library was synthesised by Anaspec, Inc. [γ-^32P] ATP was from PerkinElmer. HRP-conjugated secondary antibodies were from Jackson Immunoresearch. Unless otherwise indicated all other reagents were from Sigma.
as §2, §3, §4

GST–PCTAIRE-1 [2] = experiment: In vitro phosphotransferase (kinase) assay of purified GST–PCTAIRE-1 on peptide substrates; type: biochemical, human; conditions: GST–PCTAIRE-1 from HEK293 vs CDK2–cyclin A2 from E. coli; data not shown
Method: as §1, §2, §3, §4

FLAG-WT–PCTAIRE-1 = FLAG-WT–PCTAIRE-1 (human, UniProt Q00536-1 1-496); experiment: cell-based or functional assay
[3] = CDK-tide derivatives, 10 ng CDK2–cyclin A2, peptide 0-100 μM, Michaelis–Menten fit, mean ± SEM
[4] = Fig. 2B, CDK-tide derivatives, 10 ng CDK2–cyclin A2, peptide 0-100 μM, Michaelis–Menten fit, 0.1 mM [γ-32P]ATP, 30 °C, mean ± SEM, representative of 3 independent experiments
[5] = Fig. 2A, CDK-tide derivatives, Michaelis–Menten fit, 0.1 mM [γ-32P]ATP, 30 °C, 1 U = 1 nmol phosphate min-1
[6] = Fig. 2A, CDK-tide derivatives, Michaelis–Menten non-linear regression, 0.1 mM [γ-32P]ATP, 30 °C, P81 paper, representative of 3 independent experiments

T1 sequence (Q00536 whole entry): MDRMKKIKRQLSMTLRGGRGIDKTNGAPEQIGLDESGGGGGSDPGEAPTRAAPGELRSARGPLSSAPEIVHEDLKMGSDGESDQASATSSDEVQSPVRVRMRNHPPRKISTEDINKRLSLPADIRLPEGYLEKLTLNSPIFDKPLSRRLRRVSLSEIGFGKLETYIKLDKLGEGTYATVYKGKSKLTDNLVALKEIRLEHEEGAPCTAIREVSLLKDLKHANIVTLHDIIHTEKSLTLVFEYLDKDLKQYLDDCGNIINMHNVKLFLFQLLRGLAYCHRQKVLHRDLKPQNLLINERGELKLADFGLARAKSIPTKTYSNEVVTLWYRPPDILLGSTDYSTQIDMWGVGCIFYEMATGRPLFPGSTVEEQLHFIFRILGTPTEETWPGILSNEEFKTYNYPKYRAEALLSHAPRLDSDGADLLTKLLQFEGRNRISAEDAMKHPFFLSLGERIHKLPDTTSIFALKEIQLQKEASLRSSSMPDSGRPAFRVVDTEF
Sequence of FLAG-WT–PCTAIRE-1 (Q00536 whole entry): as above

Q: “FIKICSPDKMIGRRR [peptide around Ser569 of human NSF with three extra C-terminal Arg]” was tested. Which Km (GST–PCTAIRE-1 [1]; Fig. 2C, NSF-tide derivatives, Michaelis–Menten fit, 0.1 mM [γ-32P]ATP, 30 °C) did it give?
A: The Km was 15 ± 6 µM.

Q: And the “GST-PCTAIRE-1 Vmax” value (GST–PCTAIRE-1 [1]; Fig. 2C, NSF-tide derivatives, Michaelis–Menten fit)?
A: Its value is 34 ± 4 mU.mg^-1.

Q: Which results are given for “PKSPKARKKL [optimal PCTAIRE-1 substrate peptide …, modified from the parental CDK substrate peptide]”?
A: CDK2-cyclin A2 Vmax (CDK2–cyclin A2; [3]): No fit; CDK2-cyclin A2 Km (CDK2–cyclin A2; [4]): No fit; GST-PCTAIRE-1 Vmax (GST–PCTAIRE-1 [1]; [5]): 550 ± 19 mU.mg^-1; GST-PCTAIRE-1 Vmax (GST–PCTAIRE-1 [1]; Fig. 2A, CDK-tide derivatives, Michaelis–Menten fit, 0.1 mM [γ-32P]ATP, 30 °C, 1 U = 1 nmol phosphate min-1, listed as PKSPKARKKL): ~ 550 mU.mg^-1; Km (GST–PCTAIRE-1 [1]; [6]): 4 ± 1 µM; Km (GST–PCTAIRE-1 [1]; Fig. 2A, CDK-tide derivatives, Michaelis–Menten non-linear regression, 0.1 mM [γ-32P]ATP, 30 °C, P81 paper, representative of 3 independent experiments, listed as PKSPKARKKL): ~4 µM

Q: “PKTPKKAKKL [generic CDK substrate peptide … derived from CDK phosphorylation sites of histone H1]” was tested. Which “CDK2-cyclin A2 Vmax” value (CDK2–cyclin A2; [3]) did it give?
A: The value was 1100 ± 54 U.mg^-1.

Q: What about the Km (CDK2–cyclin A2; [4]) of the same molecule?
A: The Km was ~20 µM and 19 µM.

Q: What about the “CDK2–cyclin A2 Vmax as stated in text” value (CDK2–cyclin A2; running text on Fig. 2B, one range stated for TPKKR, SPKKA and TPKKA together) of the same molecule?
A: Its value is 1100–1500 mU mg^− 1.

Q: What about the “GST-PCTAIRE-1 Vmax” value (GST–PCTAIRE-1 [1]; [5]) of the same molecule?
A: Its value is 71 ± 7 mU.mg^-1.

Q: What about the Km (GST–PCTAIRE-1 [1]; [6]) of the same molecule?
A: The Km was 23 ± 6 µM.

Q: And the “Specific activity of PCTAIRE-1 towards the peptide, fold lower than that of CDK2–cyclin A2” value (GST–PCTAIRE-1 [2])?
A: Its value is > 2000 fold.

B1: HA-cyclin Y (natural protein, human, UniProt Q8ND76-1 1-341, looked up)
chain: MGNTTSCCVSSSPKLRRNAHSRLESYRPDTDLSREDTGCNLQHISDRENIDDLNMEFNPSDHPRASTIFLSKSQTDVREKRKSLFINHHPPGQIARKYSSCSTIFLDDSTVSQPNLKYTIKCVALAIYYHIKNRDPDGRMLLDIFDENLHPLSKSEVPPDYDKHNPEQKQIYRFVRTLFSAAQLTAECAIVTLVYLERLLTYAEIDICPANWKRIVLGAILLASKVWDDQAVWNVDYCQILKDITVEDMNELERQFLELLQFNINVPSSVYAKYYFDLRSLAEANNLSFPLEPLSRERAHKLEAISRLCEDKYKDLRRSARKRSASADNLTLPRWSPAIIS
Q: How did the “PCTAIRE-1 kinase activity of the immunoprecipitates towards 50 μM PCTAIRE-tide, with co-expressed cyclin Y against without” value (FLAG-WT–PCTAIRE-1) turn out when B1 was run?
A: Its value is > 100 fold.
